{"source": "patent US11186577B2", "about": "“Vasopressin receptor antagonists and products and methods related thereto” (BlackThorn Therapeutics, Inc., priority 2017, dated 2021)"}
{"biological_target": "human Arginine Vasopressin Receptor 1a (AVPR1a) (Homo sapiens (Human), UniProt P37288)", "sequence (P37288 whole entry)": "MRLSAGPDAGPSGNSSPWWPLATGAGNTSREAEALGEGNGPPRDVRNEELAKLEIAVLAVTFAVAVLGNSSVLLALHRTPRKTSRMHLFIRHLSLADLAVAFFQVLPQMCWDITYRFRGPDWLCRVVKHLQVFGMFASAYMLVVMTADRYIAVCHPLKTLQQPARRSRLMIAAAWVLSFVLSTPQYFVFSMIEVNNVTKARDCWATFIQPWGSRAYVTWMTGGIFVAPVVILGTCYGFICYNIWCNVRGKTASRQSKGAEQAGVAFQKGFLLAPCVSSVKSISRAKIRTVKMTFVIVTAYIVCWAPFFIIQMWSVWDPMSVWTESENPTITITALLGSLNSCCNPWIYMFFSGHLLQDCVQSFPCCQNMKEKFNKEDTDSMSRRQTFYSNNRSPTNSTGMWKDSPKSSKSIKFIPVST", "assay": "Vasopressin V1A receptor antagonist assay (AVP-evoked calcium, FLIPR, CHO-AVPR1a cells)", "assay_type": "cell-based", "conditions": "not given", "method": "(§1) The purpose of this assay was to determine the inhibitory effect of synthesized compounds on the Vasopressin V1a receptor. The assay as performed in Chinese Hamster Ovary (CHO) cells expressing the human Arginine Vasopressin Receptor 1a (AVPR1a). Arginine Vasopressin (AVP) evokes an increase in intracellular calcium in CHO-AVPR1a cells which is measured in a fluorescence assay on the FLIPR^TETRA using calcium sensitive dyes. Test compounds were assessed for their ability to affect the magnitude of the response to AVP, with antagonists showing a concentration-dependent reduction in the AVP-mediated fluorescence. Compounds were tested in duplicate in a 10-point, 1:3 dilution series starting at a nominal concentration of 3 μM in the assay.\n(§2) CHO-AVPR1a cells were maintained in routine culture in T175 Flasks at 37° C., 5% CO2. The growth medium consists of Ham's F12 media supplemented with 10% v/v fetal bovine serum, 1× non-essential amino acids, and 0.4 mg/ml Geneticin G418.\n(§3) On day one, cells were harvested from T175 flasks when they are 80-90% confluent by first washing the cell monolayer with PBS and then dissociated using trypsin 0.05%/EDTA (3 mL for a T175 Flask). The flasks were incubated at room temperature until the cells detached. To the cell suspension, 10 ml of growth media was added and the cell density determined using the Vi-Cell automated cell counter. The cells were spun at 1000 rpm for 3 minutes, then the supernatant was carefully removed and discarded. The cell pellet was re-suspended at 6.0e^5 cells/ml in growth media. 25 μL of cells in growth media was dispensed into each well (15,000 cells per well) of a poly-D-lysine coated black, clear bottomed, 384-well plate. The plates were incubated at 37° C., 5% CO2 overnight.\n(§4) At the start of each assay day, the potency of AVP was assessed and an EC80 concentration determined for subsequent compound profiling. Assays were performed using a two-step addition protocol on the FLIPR^TETRA; first addition of 5 μl of control or test compound at 10× final in assay buffer with 15 min incubation at 37° C., 5% CO2 followed by 10 μl of AVP at 6× final concentration in assay buffer. […] The assay buffer consisted of HBSS (+Ca/+Mg) supplemented with 20 mM HEPES, and for the preparation of the AVP agonist only, 0.1% w/v bovine serum albumin. The assay was initiated by the removal of growth media from the cells and replacement with 45 μl of Calcium-6 dye (Molecular Devices) prepared at 1× in assay buffer. Cells are loaded with dye for 60-90 min at 37° C., 5% CO2 before initiation of the FLIPR^TETRA protocol. […] At the end of the incubation period, 10 μl of AVP in assay buffer containing 0.1% BSA was added at the previously determined EC80 concentration.", "units": {"IC50": "µM"}}
{"smiles": "Cc1ccc(N2CC3(CC(c4nnc5n4-c4ccc(Cl)cc4CN(C4(C)CC4)C5)C3)C2)nc1", "note": "[compound 265]", "IC50": "0.1 to 0.5"}
{"smiles": "CC(=O)N1Cc2cc(Cl)ccc2-n2c(nnc2C2CC3(C2)CN(c2cccnn2)C3)C1", "note": "[compound 66]", "IC50": "0.1 to 0.5"}
{"smiles": "Cc1nc(N2CC3(CC(c4nnc5n4-c4ccc(Cl)cc4CN(C)C5)C3)C2)no1", "note": "[compound 266, 3-(6-(8-chloro-5-methyl-5,6-dihydro-4H-benzo[f][1,2,4]triazolo[4,3-a][1,4]diazepin-1-yl)-2-azaspiro[3.3]heptan-2-yl)-5-methyl-1,2,4-oxadiazole]", "IC50": "0.5 to 1"}
{"smiles": "Cc1nc(N2CC3(CC(c4nnc5n4-c4ccc(Cl)cc4CN(C4CC4)C5)C3)C2)no1", "note": "[compound 268, 3-(6-(8-chloro-5-cyclopropyl-5,6-dihydro-4H-benzo[f][1,2,4]triazolo[4,3-a][1,4]diazepin-1-yl)-2-azaspiro[3.3]heptan-2-yl)-5-methyl-1,2,4-oxadiazole]", "IC50": "0.1 to 0.5"}
{"smiles": "CC(C)C(=O)N1CC2(CC(c3nnc4n3-c3ccc(Cl)cc3CN(C)C4)C2)C1", "note": "[compound 30]", "IC50": "0.1 to 0.5"}
{"smiles": "Cc1nccc(N2CC3(CC(c4nnc5n4-c4ccc(Cl)cc4CN(C4CC4)C5)C3)C2)n1", "note": "[compound 270]", "IC50": "0.1 to 0.5"}
{"smiles": "COC(=O)N1Cc2cc(Cl)ccc2-n2c(nnc2C2CC3(C2)CN(c2ccncn2)C3)C1", "note": "[compound 186]", "IC50": "0.1 to 0.5"}
{"smiles": "CC1(N2Cc3cc(Cl)ccc3-n3c(nnc3C3CC4(C3)CN(c3ccncn3)C4)C2)CC1", "note": "[compound 254]", "IC50": "0.1 to 0.5"}
{"smiles": "CN1Cc2cc(Cl)ccc2-n2c(nnc2C2CC3(C2)CN(S(=O)(=O)C2CC2)C3)C1", "note": "[compound 26]", "IC50": "0.1 to 0.5"}
{"smiles": "Cc1cnc(N2CC3(CC(c4nnc5n4-c4ccc(Cl)cc4CN(C)C5)C3)C2)nc1", "note": "[compound 239]", "IC50": "0.1 to 0.5"}
{"smiles": "CN1Cc2cc(Cl)ccc2-n2c(nnc2C2CC3(C2)CN(c2nn(C)c4ncccc24)C3)C1", "note": "[compound 231]", "IC50": "0.1 to 0.5"}
{"smiles": "O=C1OCC2c3nnc(C4CC5(C4)CN(c4ncccn4)C5)n3-c3ccc(Cl)cc3CN12", "note": "(centres unmarked) [compound 198]", "IC50": "0.1 to 0.5"}
{"biological_target": "human Arginine Vasopressin Receptor 1a (AVPR1a) (Homo sapiens (Human), UniProt P37288)", "assay": "Vasopressin V1A receptor antagonist assay (AVP-evoked calcium, FLIPR, CHO-AVPR1a cells)", "assay_type": "cell-based", "conditions": "read-out: V1a IC50", "method": "as §1, §2, §3, §4", "units": {"IC50": "µM"}}
{"smiles": "COCC(=O)N1CC2(CC(c3nnc4n3-c3ccc(Cl)cc3CN(C)C4)C2)C1", "note": "[compound 126]", "IC50": "> 1"}
{"smiles": "CC1c2nnc(C3CC4(C3)CN(c3ccccn3)C4)n2-c2ccc(Cl)cc2CN1C(=O)C1(F)CC1", "note": "(single isomer, unassigned) [Cpd 181B]", "IC50": "0.1 to 0.5"}
{"smiles": "CC1(N2Cc3cc(Cl)ccc3-n3c(nnc3C3CC4(C3)CN(c3nccc(C#N)n3)C4)C2)CC1", "note": "[compound 263]", "IC50": "< 0.1"}
{"smiles": "Cc1ccnc(N2CC3(CC(c4nnc5n4-c4ccc(Cl)cc4CN(C4CC4)C5)C3)C2)c1", "note": "[compound 217, 8-chloro-5-cyclopropyl-1-(2-(4-methylpyridin-2-yl)-2-azaspiro[3.3]heptan-6-yl)-5,6-dihydro-4H-benzo[f][1,2,4]triazolo[4,3-a][1,4]diazepine]", "IC50": "< 0.1"}
{"smiles": "Cc1ccc(F)c(N2CC3(CC(c4nnc5n4-c4ccc(Cl)cc4CN(C4CC4)C5)C3)C2)n1", "note": "[compound 273]", "IC50": "< 0.1"}
{"smiles": "COC(=O)N1Cc2cc(Cl)ccc2-n2c(C3CC4(C3)CN(c3ncccn3)C4)nnc2C1C", "note": "(single isomer, unassigned) [Cpd 166B]", "IC50": "0.5 to 1"}
{"smiles": "Cc1nccnc1N1CC2(CC(c3nnc4n3-c3ccc(Cl)cc3CN(C3(C)CC3)C4)C2)C1", "note": "[compound 244]", "IC50": "< 0.1"}
{"smiles": "CN1Cc2cc(Cl)ccc2-n2c(nnc2C2CC3(C2)CN(c2ncncc2F)C3)C1", "note": "[compound 238]", "IC50": "< 0.1"}
{"smiles": "CC1c2nnc(C3CC4(C3)CN(c3ccccn3)C4)n2-c2ccc(Cl)cc2CN1C(=O)C1(F)CC1", "note": "(centres unmarked) [compound 181]", "IC50": "< 0.1"}
{"smiles": "COc1cc(N2CC3(CC(c4nnc5n4-c4ccc(Cl)cc4CN(C4CC4)C5)C3)C2)ncc1F", "note": "[compound 249]", "IC50": "< 0.1"}
{"smiles": "CC1c2nnc(C3CC4(C3)CN(c3ncc(F)cn3)C4)n2-c2ccc(Cl)cc2CN1C(=O)OC(CF)CF", "note": "(single isomer, unassigned) [Cpd 194B]", "IC50": "> 1"}
{"smiles": "COCCN1Cc2cc(Cl)ccc2-n2c(nnc2C2CC3(C2)CN(c2cnccn2)C3)C1", "note": "[compound 43]", "IC50": "< 0.1"}
{"smiles": "O=C(C1C[C@@H]1F)N1Cc2cc(Cl)ccc2-n2c(nnc2C2CC3(C2)CN(c2ccc(F)cn2)C3)C1", "note": "(some centres unmarked) [compound 159]", "IC50": "< 0.1"}
{"smiles": "CN1Cc2cc(Cl)ccc2-n2c(nnc2C2CC3(C2)CN(C(=O)C2CCO2)C3)C1", "note": "(centres unmarked) [compound 33]", "IC50": "> 1"}
{"smiles": "N#Cc1cccc(N2CC3(CC(c4nnc5n4-c4ccc(Cl)cc4CN(C4CC4)C5)C3)C2)n1", "note": "[compound 228]", "IC50": "< 0.1"}
{"smiles": "COC(=O)N1Cc2cc(Cl)ccc2-n2c(C3CC4(C3)CN(c3ncncc3F)C4)nnc2C1C", "note": "(single isomer, unassigned) [Cpd 188A]", "IC50": "< 0.1"}
{"smiles": "CC(C)OC(=O)N1Cc2cc(Cl)ccc2-n2c(C3CC4(C3)CN(c3ccc(F)cn3)C4)nnc2C1C", "note": "(single isomer, unassigned) [Cpd 163B]", "IC50": "0.5 to 1"}
{"smiles": "COCCN1Cc2cc(Cl)ccc2-n2c(nnc2C2CC3(C2)CN(c2ncccc2F)C3)C1", "note": "[compound 53]", "IC50": "< 0.1"}
{"smiles": "CN1Cc2cc(Cl)ccc2-n2c(nnc2C2CC3(C2)CN(C(=O)c2ccccn2)C3)C1", "note": "[compound 24]", "IC50": "> 1"}
{"smiles": "CC1(N2Cc3cc(Cl)ccc3-n3c(nnc3C3CC4(C3)CN(c3cccc(C#N)n3)C4)C2)CC1", "note": "[compound 262]", "IC50": "< 0.1"}
{"smiles": "CC1c2nnc(C3CC4(C3)CN(c3ccc(F)cn3)C4)n2-c2ccc(Cl)cc2CN1C(=O)C(C)(C)F", "note": "(centres unmarked) [compound 178]", "IC50": "< 0.1"}
{"smiles": "CC(C)OC(=O)N1Cc2cc(Cl)ccc2-n2c(C3CC4(C3)CN(c3ncccn3)C4)nnc2C1C", "note": "(single isomer, unassigned) [Cpd 167B]", "IC50": "> 1"}
{"smiles": "CN1Cc2cc(Cl)ccc2-n2c(nnc2C2CC3(C2)CN(C(=O)N2CCOCC2)C3)C1", "note": "[compound 25]", "IC50": "> 1"}
{"smiles": "O=C(NC1CC1)N1Cc2cc(Cl)ccc2-n2c(nnc2C2CC3(C2)CN(c2ccc(F)cn2)C3)C1", "note": "[compound 246, 8-chloro-N-cyclopropyl-1-(2-(5-fluoropyridin-2-yl)-2-azaspiro[3.3]heptan-6-yl)-4H-benzo[f][1,2,4]triazolo[4,3-a][1,4]diazepine-5(6H)-carboxamide]", "IC50": "< 0.1"}
{"smiles": "COC(=O)N1Cc2cc(Cl)ccc2-n2c(C3CC4(C3)CN(c3ccncn3)C4)nnc2C1C", "note": "(centres unmarked) [compound 184, methyl 8-chloro-4-methyl-1-(2-(pyrimidin-4-yl)-2-azaspiro[3.3]heptan-6-yl)-4H-benzo[f][1,2,4]triazolo[4,3-a][1,4]diazepine-5(6H)-carboxylate]", "IC50": "0.1 to 0.5"}
{"smiles": "Cc1nc(N2CC3(CC(c4nnc5n4-c4ccc(Cl)cc4CN(C4(C)CC4)C5)C3)C2)ccc1F", "note": "[compound 260]", "IC50": "< 0.1"}
{"smiles": "Cc1cc(N2CC3(CC(c4nnc5n4-c4ccc(Cl)cc4CN(C)C5)C3)C2)ncc1F", "note": "[compound 252]", "IC50": "< 0.1"}
{"smiles": "Cc1ccc(N2CC3(CC(c4nnc5n4-c4ccc(Cl)cc4CN(C4CC4)C5)C3)C2)nc1", "note": "[compound 227]", "IC50": "< 0.1"}
{"smiles": "CC1c2nnc(C3CC4(C3)CN(c3ncc(F)cn3)C4)n2-c2ccc(Cl)cc2CN1C(=O)OC1CC1", "note": "(single isomer, unassigned) [Cpd 192B]", "IC50": "> 1"}
{"smiles": "Cc1cc(C)nc(N2CC3(CC(c4nnc5n4-c4ccc(Cl)cc4CN(C4CC4)C5)C3)C2)c1", "note": "[compound 275]", "IC50": "< 0.1"}
{"smiles": "COc1ccc(C)nc1N1CC2(CC(c3nnc4n3-c3ccc(Cl)cc3CN(C3CC3)C4)C2)C1", "note": "[compound 274]", "IC50": "< 0.1"}
{"smiles": "N#Cc1ccnc(N2CC3(CC(c4nnc5n4-c4ccc(Cl)cc4CN(C4CC4)C5)C3)C2)n1", "note": "[compound 248]", "IC50": "< 0.1"}
{"smiles": "Clc1ccc2c(c1)CN(C1CC1)Cc1nnc(C3CC4(C3)CN(c3cnccn3)C4)n1-2", "note": "[compound 219]", "IC50": "< 0.1"}
{"smiles": "Clc1ccc2c(c1)CN(C1CC1)Cc1nnc(C3CC4(C3)CN(c3ccncn3)C4)n1-2", "note": "[compound 233]", "IC50": "< 0.1"}
{"smiles": "Cc1ccnc(N2CC3(CC(c4nnc5n4-c4ccc(Cl)cc4CN(C)C5)C3)C2)c1", "note": "[compound 241, 8-chloro-5-methyl-1-(2-(4-methylpyridin-2-yl)-2-azaspiro[3.3]heptan-6-yl)-5,6-dihydro-4H-benzo[f][1,2,4]triazolo[4,3-a][1,4]diazepine]", "IC50": "< 0.1"}
